Where “and” joins values, the source holds several entries; their conditions need not be identical. Equal entries are not always repeated. Structures can show the parent of a compound that is named as a salt. Where two headings read alike, the source gives them in different places.
Target: human BACE-1 (Homo sapiens, UniProt P56817)
Assay: CEREP BACE Inhibition Assay
Type: biochemical
Conditions: for inhibition at 1 µM: read-out: % Inhibition @ 1.0 μM
Outline: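 Recombinant human BACE-1 (0.25 μg) was assayed in 0.09 M sodium acetate pH 4.5, with activity followed fluorimetrically as formation of Mca-S-E-V-N-L[…] from peptide substrate. Compound autofluorescence was checked at the detection wavelengths. Basal signal was taken from wells without substrate.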

[1] = 1.0 μM, percent inhibition of the control activity, recombinant enzyme
[2] = recombinant enzyme, read-out: IC50
[3] = percent inhibition of the control activity, recombinant enzyme

Chain of human BACE-1 (P56817 46-501): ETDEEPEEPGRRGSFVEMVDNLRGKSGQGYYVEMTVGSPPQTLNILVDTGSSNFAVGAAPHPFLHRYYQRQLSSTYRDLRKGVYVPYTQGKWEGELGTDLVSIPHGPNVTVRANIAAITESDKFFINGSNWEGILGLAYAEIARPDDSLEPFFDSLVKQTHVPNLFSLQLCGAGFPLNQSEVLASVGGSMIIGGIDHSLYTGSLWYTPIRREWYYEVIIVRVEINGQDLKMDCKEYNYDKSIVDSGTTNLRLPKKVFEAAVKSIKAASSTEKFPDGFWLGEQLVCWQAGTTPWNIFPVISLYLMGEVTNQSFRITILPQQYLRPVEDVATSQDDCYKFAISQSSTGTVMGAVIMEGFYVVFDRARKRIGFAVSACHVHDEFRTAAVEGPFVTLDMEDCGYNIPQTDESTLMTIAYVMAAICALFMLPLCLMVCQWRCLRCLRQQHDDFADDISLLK

inhibition at 1 µM [1] [%]	IC50 [2]	SMILES	further results
86	0.19 µM	CC(C)CN(CCN1CCOCC1)C(=O)CC[C@@H](C(C)C)N1Cc2cc(Oc3ccccc3)ncc2N=C1N [Compound 190]	–
60	0.054 µM	CC(C)CN(CCC[C@@H](C(C)C)N1Cc2cc(Oc3ccccc3)ncc2N=C1N)CCN1CCOCC1 [Compound 193]	–
34	–	CN(C(=O)CCCN1Cc2cc(Oc3ccccc3)ncc2N=C1N)C1CCCCC1 [Compound 196, 4-(2-Amino-6-phenoxy-4H-pyrido[3,4-d]pyrimidin-3-yl)-N-cyclohexyl-N-methyl-butyramide]	–
100	0.086 µM	CC(C)(C)c1cn(CC[C@@H](C2CCCCC2)N2Cc3cc(Oc4ccccc4)ncc3N=C2N)nn1 [Compound 199]	–
88	0.22 µM	CC(C)(C)CCNC(=O)C[C@@H](C1CCCCC1)N1Cc2cc(Oc3ccccc3)ncc2N=C1N [Compound 202, 3-(2-Amino-6-phenoxy-4H-pyrido[3,4-d]pyrimidin-3-yl)-3(S)-cyclohexyl-N-(3,3-dimethyl-butyl)-propionamide hydrochloride salt]	% Inhibition @ 1.0 μM (1.0 μM, percent inhibition of the control activity, recombinant enzyme, hydrochloride salt): 73%
100	0.077 µM	CC(C)(C)CNC(=O)CC[C@@H](C1CCCCC1)N1Cc2cc(Oc3ccccc3)ncc2N=C1N [Compound 204]	–
81	0.29 µM	CN(C(=O)C[C@@H](C1CCCCC1)N1Cc2cc(Oc3ccccc3)ncc2N=C1N)C1CCCCC1 [Compound 205]	–
93	0.12 µM	CC(C)CN(C)CCC[C@@H](C1CCCCC1)N1Cc2cc(Oc3ccccc3)ncc2N=C1N [Compound 209]	–
88	0.16 µM	NC1=Nc2cnc(Oc3ccccc3)cc2CN1[C@@H](CCCNC[C@H]1CCCO1)C1CCCCC1 [Compound 211]	–
88	0.24 µM	NC1=Nc2cnc(Oc3ccccc3)cc2CN1[C@@H](CCCNCC1CC1)C1CCCCC1 [Compound 213]	–
57	0.93 µM and 1 µM	CC(C)(C)CNCC[C@@H](C1CCCCC1)N1Cc2cc(Oc3ccccc3)ncc2N=C1N [Compound 214]	% Inhibition @ 1.0 μM [1]: 53%
96	0.087 µM and 0.12 µM	CC(C)(C)CCNCC[C@@H](C1CCCCC1)N1Cc2cc(Oc3ccccc3)ncc2N=C1N [Compound 216]	% Inhibition @ 1.0 μM [1]: 95%
64	0.64 µM	CC(C)(C)CNC(=O)CC[C@@H](CC1CCOCC1)N1Cc2cc(Oc3ccccc3)ncc2N=C1N [Compound 219]	–
52	0.98 µM	CC(C)[C@H](C(=O)N(C)CCc1ccccc1)N1Cc2cc(Oc3ccccc3)ncc2N=C1N [Compound 221, 2-(2-Amino-6-phenoxy-4H-pyrido[3,4-d]pyrimidin-3-yl)-3,N-dimethyl-N-phenethyl-butyramide hydrochloride salt (R enantiomer)]	–
97	0.13 µM	CC(C)[C@H](CCC(=O)OCc1ccccc1)N1Cc2cc(Oc3ccccc3)ncc2N=C1N [Compound 231, 4-(2-Amino-6-phenoxy-4H-pyrido[3,4-d]pyrimidin-3-yl)-5-methyl-hexanoic acid benzyl ester]	–
99	0.11 µM	CC(C)[C@H](COCCC1CCCCC1)N1Cc2cc(Oc3ccccc3)ncc2N=C1N [Compound 232, 3-[1-(2-cyclohexyl-ethoxymethyl)-(R)-(2-methyl-propyl)]-6-phenoxy-3,4-dihydro-pyrido[3,4-d]pyrimidin-2-ylamine]	–
52	0.88 µM	CC(C)=CCOC[C@@H](C(C)C)N1Cc2cc(Oc3ccccc3)ncc2N=C1N [Compound 233, 3-[2-Methyl-1-(3-methyl-but-2-enyloxymethyl)-propyl]-6-phenoxy-3,4-dihydro-pyrido[3,4-d]pyrimidin-2-ylamine]	–
72	0.54 µM	CC(C)C(COCC1CC(CC(C)(C)C)=NO1)N1Cc2cc(Oc3ccccc3)ncc2N=C1N (stereo not shown) [Compound 238]	–

Continued, compound first:

SMILES	inhibition at 1 µM [1] [%]	IC50 [2]	further results
CC(C)CN(CCC[C@@H](C1CCCCC1)N1Cc2cc(Oc3ccccc3)ncc2N=C1N)CCN1CCOCC1 [Compound 192]	101	0.073 µM	–
NC1=Nc2cnc(Oc3ccccc3)cc2CN1[C@@H](CCn1cc(C2CCCCC2)nn1)C1CCCCC1 [Compound 198, 3-[—(S)-cyclohexyl-3-(4-cyclohexyl-[1,2,3]triazol-1-yl)-propyl]-6-phenoxy-3,4-dihydro-pyrido[3,4-d]pyrimidin-2-ylamine]	95	0.14 µM	–
CC(C)(C)CNC(=O)C[C@@H](C1CCCCC1)N1Cc2cc(Oc3ccccc3)ncc2N=C1N [Compound 200]	50	0.78 µM and 0.76 µM	% Inhibition @ 1.0 μM [1]: 53%
CN(CC[C@@H](C1CCCCC1)N1Cc2cc(Oc3ccccc3)ncc2N=C1N)C1CCCCC1 [Compound 206]	91	0.18 µM and 0.12 µM	% Inhibition @ 1.0 μM [1]: 90%
CC(C)CNC(=O)CC[C@@H](C1CCCCC1)N1Cc2cc(Oc3ccccc3)ncc2N=C1N [Compound 208]	98	0.13 µM	–
NC1=Nc2cnc(Oc3ccccc3)cc2CN1[C@@H](CCC(=O)NC[C@H]1CCCO1)C1CCCCC1 [Compound 210]	98	0.12 µM	–
NC1=Nc2cnc(Oc3ccccc3)cc2CN1[C@@H](CCC(=O)NCC1CC1)C1CCCCC1 [Compound 212]	99	0.076 µM	–
CC(C)(C)OC[C@@H](NC(=O)CC[C@@H](C1CCCCC1)N1Cc2cc(Oc3ccccc3)ncc2N=C1N)C(=O)N[C@@H](CCC(=O)O)C(=O)O [Compound 224]	100	0.082 µM	–
CC(C)(C)OC[C@@H](NC(=O)CC[C@@H](C1CCCCC1)N1Cc2cc(Oc3ccccc3)ncc2N=C1N)C(=O)N[C@@H](CCC(=O)O)C(=O)O [Compound 225]	–	0.11 µM	% Inhibition @ 1.0 μM [1]: 96%
NC1=Nc2cnc(Oc3ccccc3)cc2CN1[C@@H](CN1C(=O)NC2(CCCCC2)C1=O)C1CCCCC1 [Compound 229, 3-[2-(2-Amino-6-phenoxy-4H-pyrido[3,4-d]pyrimidin-3-yl)-2-(R)-cyclohexyl-ethyl]-1,3-diaza-spiro[4.5]decane-2,4-dione]	78	0.39 µM	–
CC(C)[C@H](COCC1CCCCC1)N1Cc2cc(Oc3ccccc3)ncc2N=C1N [Compound 234]	94	0.18 µM	–
CC(C)C(COCC1CC(C2CCCCC2)=NO1)N1Cc2cc(Oc3ccccc3)ncc2N=C1N (stereo not shown) [Compound 235]	–	–	IC50 (IC50 (μM), recombinant enzyme): 0.61 µM; inhibition at 1 µM: 59%
CC(C)[C@H](COCC1CC(C(C)(C)C)=NO1)N1Cc2cc(Oc3ccccc3)ncc2N=C1N (stereo partly shown) [Compound 236, 3-[1-(3-tert-Butyl-4,5-dihydro-isoxazol-5-ylmethoxymethyl)-2-methyl-propyl]-6-phenoxy-3,4-dihydro-pyrido[3,4-d]pyrimidin-2-ylamine]	92	0.18 µM	–
CC(C)[C@H](COCc1cc(C(C)(C)C)no1)N1Cc2cc(Oc3ccccc3)ncc2N=C1N [Compound 237]	87	0.27 µM	–
CC(C)(C)c1cn(C[C@@H](C2CCCCC2)N2Cc3cc(Oc4ccccc4)ncc3N=C2NN)nn1 [Compound 245, {3-[2-(4-tert-Butyl-[1,2,3]triazol-1-yl)-1-(R)-cyclohexyl-ethyl]-6-phenoxy-3,4-dihydro-pyrido[3,4-d]pyrimidin-2-yl}-hydrazine]	–	–	inhibition at 10 µM [3]: 29%
CC(C)(C)c1cn(C[C@@H](C2CCCCC2)N2Cc3cc(Oc4ccccc4)ncc3N=C2NO)nn1 [Compound 246, N-{3-[2-(4-tert-Butyl-[1,2,3]triazol-1-yl)-1-(R)-cyclohexyl-ethyl]-6-phenoxy-3,4-dihydro-pyrido[3,4-d]pyrimidin-2-yl}-hydroxylamine]	–	–	inhibition at 10 µM [3]: 94%
